From BigSolDB 2.1

Cl.c1ccc2c(CC3=NCCN3)cccc2c1
solubility (mole fraction)
Settings	278.15 K	283.15 K	288.15 K	293.15 K	298.15 K	303.15 K	308.15 K	313.15 K	318.15 K	323.15 K
in 2-methoxyethanol	0.0132	0.0157	0.0184	0.0214	0.0246	0.0287	0.0329	0.0366	0.0419	0.0476
in ethanol	0.00313	0.00386	0.00457	0.00545	0.00639	0.0076	0.00893	0.0104	0.012	0.014
in isopropanol	0.000605	0.000784	0.00101	0.0013	0.00169	0.00202	0.00249	0.00309	0.00377	0.00462
in methanol	0.011	0.0137	0.0164	0.0198	0.0243	0.0287	0.0337	0.04	0.0462	0.0527
